Reference: the NIST ThermoML archive (doi:10.1016/j.jct.2015.11.007)
Numbers after ± are expanded uncertainties.

How the values were obtained:
[1] = Molar enthalpy of transition or fusion; conditions: Crystal; DSC
[2] = Crystal; DTA

**Q.** Which results are given for NC(=O)CN1CC(O)CC1=O (configuration not stated) [4-hydroxy-2-oxo-1-pyrrolidineacetamide]?
**A.** Molar enthalpy of transition or fusion [1]: 34.7 ± 1.4 kJ/mol; Normal melting temperature [2]: 172.13 ± 0.61 °C
